Assays:
full NCI 60 cell panel = assay: NCI 60 Cell One-dose screen; assay type: cell-based, human; conditions: single high dose 10^−5 M, NCI 60 panel
Text: Compounds were submitted to the NCI 60 Cell screen and tested at a single high dose (10^−5 M) in the full NCI 60 cell panel (see the following reference for details of using NCI 60 human tumor cell lines for screening anticancer drugs: Shoemaker R H. The NCI60 human tumor cell line anticancer drug screen. Nature Rev Cancer 2006; 6: 813-23). The One-dose data is reported as a mean graph of the percent growth of treated cells. The number reported for the One-dose assay is growth relative to the no-drug control, and relative to the time zero number of cells. This allows detection of both growth inhibition (values between 0 and 100) and lethality (values less than 0). For example, a value of 100 means no growth inhibition. A value of 40 would mean 60% growth inhibition. A value of 0 means no net growth over the course of the experiment. A value of −40 would mean 40% lethality. A value of −100 means all cells are dead. FIGS. 1-8 show the mean graph of percent growth against the NCI-60 cell panel for NUCC-0226674, NUCC-0226679, NUCC-0226680, NUCC-0226683, NUCC-0226689, NUCC-0226694, NUCC-0226695, and NUCC-0226698.

A549/ATCC = assay: NCI 60 five-dose screen A549/ATCC; assay type: cell-based; conditions: Homo sapiens, five-dose
EKVX = assay: NCI 60 five-dose screen EKVX; assay type: cell-based; conditions: Homo sapiens, five-dose
HOP-92 = assay: NCI 60 five-dose screen HOP-92; assay type: cell-based; conditions: Homo sapiens, five-dose
NCI-H322M = assay: NCI 60 five-dose screen NCI-H322M; assay type: cell-based; conditions: Homo sapiens, five-dose
NCI-H460 = assay: NCI 60 five-dose screen NCI-H460; assay type: cell-based; conditions: Homo sapiens, five-dose
NCI-H522 = assay: NCI 60 five-dose screen NCI-H522; assay type: cell-based; conditions: Homo sapiens, five-dose
COLO 205 = assay: NCI 60 five-dose screen COLO 205; assay type: cell-based; conditions: Homo sapiens, five-dose
SW-620 = assay: NCI 60 five-dose screen SW-620; assay type: cell-based; conditions: Homo sapiens, five-dose
SF-295 = assay: NCI 60 five-dose screen SF-295; assay type: cell-based; conditions: Homo sapiens, five-dose
SNB-75 = assay: NCI 60 five-dose screen SNB-75; assay type: cell-based; conditions: Homo sapiens, five-dose
LOX IMVI = assay: NCI 60 five-dose screen LOX IMVI; assay type: cell-based; conditions: Homo sapiens, five-dose
MDA-MB-435 = assay: NCI 60 five-dose screen MDA-MB-435; assay type: cell-based; conditions: Homo sapiens, five-dose
SK-MEL-2 = assay: NCI 60 five-dose screen SK-MEL-2; assay type: cell-based; conditions: Homo sapiens, five-dose
NCI/ADR-RES = assay: NCI 60 five-dose screen NCI/ADR-RES; assay type: cell-based; conditions: Homo sapiens, five-dose
786-0 = assay: NCI 60 five-dose screen 786-0; assay type: cell-based; conditions: Homo sapiens, five-dose
ACHN = assay: NCI 60 five-dose screen ACHN; assay type: cell-based; conditions: Homo sapiens, five-dose
CAKI-1 = assay: NCI 60 five-dose screen CAKI-1; assay type: cell-based; conditions: Homo sapiens, five-dose
SN12C = assay: NCI 60 five-dose screen SN12C; assay type: cell-based; conditions: Homo sapiens, five-dose
UO-31 = assay: NCI 60 five-dose screen UO-31; assay type: cell-based; conditions: Homo sapiens, five-dose
PC-3 = assay: NCI 60 five-dose screen PC-3; assay type: cell-based; conditions: Homo sapiens, five-dose
BT-549 = assay: NCI 60 five-dose screen BT-549; assay type: cell-based; conditions: Homo sapiens, five-dose
T-47D = assay: NCI 60 five-dose screen T-47D; assay type: cell-based; conditions: Homo sapiens, T47D, five-dose
MDA-MB-468 = assay: NCI 60 five-dose screen MDA-MB-468; assay type: cell-based; conditions: Homo sapiens, five-dose
[1] = read-out: LC50 (the source's name) (converted)

SMILES: FC(F)(F)c1cc2c(Cl)ncnc2n1CCN1CCOCC1 [NUCC-0226680]
- growth inhibition in the One-Dose Screen (full NCI 60 cell panel): significant growth inhibition
- GI50 (A549/ATCC): 100 µM
- IC50 (A549/ATCC): 100 µM
- IC (TGI) (A549/ATCC): 100 µM
- CC50 (A549/ATCC; [1]): ≥ 100 µM
- GI50 (EKVX): 17 µM
- IC50 (EKVX): 50.1 µM
- IC (TGI) (EKVX): 95.5 µM
- CC50 (EKVX; [1]): ≥ 100 µM
- GI50 (HOP-92): 19.1 µM
- IC50 (HOP-92): 79.4 µM
- IC (TGI) (HOP-92): 60.3 µM
- CC50 (HOP-92; [1]): ≥ 100 µM
- GI50 (NCI-H322M): 15.8 µM
- IC50 (NCI-H322M): 41.7 µM
- IC (TGI) (NCI-H322M): 53.7 µM
- CC50 (NCI-H322M; [1]): ≥ 100 µM
- GI50 (NCI-H460): 23.4 µM
- IC50 (NCI-H460): 28.2 µM
- IC (TGI) (NCI-H460): 100 µM
- CC50 (NCI-H460; [1]): ≥ 100 µM
- GI50 (NCI-H522): 1.48 µM
- IC50 (NCI-H522): 2.95 µM
- IC (TGI) (NCI-H522): 3.31 µM
- GI50 (COLO 205): 26.3 µM
- IC50 (COLO 205): 58.9 µM
- IC (TGI) (COLO 205): 100 µM
- CC50 (COLO 205; [1]): ≥ 100 µM
- GI50 (SW-620): 10.5 µM
- IC50 (SW-620): 14.5 µM
- IC (TGI) (SW-620): 56.2 µM
- CC50 (SW-620; [1]): ≥ 100 µM
- GI50 (SF-295): 24.5 µM
- IC50 (SF-295): 45.7 µM
- IC (TGI) (SF-295): 100 µM
- CC50 (SF-295; [1]): ≥ 100 µM
- GI50 (SNB-75): 10.2 µM
- IC50 (SNB-75): 23.4 µM
- IC (TGI) (SNB-75): 22.4 µM
- CC50 (SNB-75; [1]): 49 µM
- GI50 (LOX IMVI): 1.74 µM
- IC50 (LOX IMVI): 3.02 µM
- IC (TGI) (LOX IMVI): 3.39 µM
- CC50 (LOX IMVI; [1]): 6.61 µM
- GI50 (MDA-MB-435): 13.2 µM
- IC50 (MDA-MB-435): 22.4 µM
- IC (TGI) (MDA-MB-435): 29.5 µM
- CC50 (MDA-MB-435; [1]): 64.6 µM
- GI50 (SK-MEL-2): 17.4 µM
- IC50 (SK-MEL-2): 33.9 µM
- IC (TGI) (SK-MEL-2): 33.1 µM
- CC50 (SK-MEL-2; [1]): 64.6 µM
- GI50 (NCI/ADR-RES): 30.2 µM
- IC50 (NCI/ADR-RES): 57.5 µM
- IC (TGI) (NCI/ADR-RES): 100 µM
- CC50 (NCI/ADR-RES; [1]): ≥ 100 µM
- GI50 (786-0): 37.2 µM
- IC50 (786-0): 61.7 µM
- IC (TGI) (786-0): 100 µM
- CC50 (786-0; [1]): ≥ 100 µM
- GI50 (ACHN): 7.59 µM
- IC50 (ACHN): 15.5 µM
- IC (TGI) (ACHN): 100 µM
- CC50 (ACHN; [1]): ≥ 100 µM
- GI50 (CAKI-1): 27.5 µM
- IC50 (CAKI-1): 56.2 µM
- IC (TGI) (CAKI-1): 100 µM
- CC50 (CAKI-1; [1]): ≥ 100 µM
- GI50 (SN12C): 19.5 µM
- IC50 (SN12C): 38.9 µM
- IC (TGI) (SN12C): 100 µM
- CC50 (SN12C; [1]): ≥ 100 µM
- GI50 (UO-31): 2.51 µM
- IC50 (UO-31): 5.37 µM
- IC (TGI) (UO-31): 8.91 µM
- CC50 (UO-31; [1]): 37.2 µM
- GI50 (PC-3): 11.2 µM
- IC50 (PC-3): 19.1 µM
- IC (TGI) (PC-3): 36.3 µM
- CC50 (PC-3; [1]): ≥ 100 µM
- GI50 (BT-549): 13.5 µM
- IC50 (BT-549): 28.2 µM
- IC (TGI) (BT-549): 28.2 µM
- CC50 (BT-549; [1]): 58.9 µM
- GI50 (T-47D): 38.9 µM
- IC50 (T-47D): 100 µM
- IC (TGI) (T-47D): 100 µM
- CC50 (T-47D; read-out: LC50 (the source's name)): ≥ 100 µM
- GI50 (MDA-MB-468): 2.75 µM
- IC50 (MDA-MB-468): 15.8 µM
- IC (TGI) (MDA-MB-468): 10.5 µM
- CC50 (MDA-MB-468; [1]): 42.7 µM
